Source: patent US20200276181A1, “THIENOISOQUINOLINES AND THEIR DERIVATIVES FOR TARGETING TUBULIN, CH-TOG, AURORA A KINASE, TPX2, CDK5RAP2 AND/OR ASPM” (VALORBEC, SEC, priority 2017, published 2020)

Tested on: HCT116 spheroids
Assay: Multicellular tumour spheroids
Type: cell-based
Protocol: FIGS. 5A, 5B, 5C, 5D, 5E, 5F, 5G, 5H, 5I, 5J, 5K, 5L and 5M show how C75 disrupts or reduces the growth of HeLa, HCT116 and A549 spheroids. FIG. 5A) images show HeLa spheroids over time (3 days) before and after treatment with control (1 μM C87; n=10), 250 nM (n=6) or 500 nM (n=10) of C75. The scale bar is 100 μm. FIG. 5B) is a series images of HeLa spheroids after three days of treatment with control (500 nM C87) or 500 nM C75. The spheroids were stained for fluorescein diacetate (to detect live cells) and propidium iodide (to detect dead cells). […] The scale bar is 100 μm. FIG. 5C) is a line graph showing the change in spheroid area (μm^2) for each day and treatment as indicated. Bars show standard deviation and the asterisks are p<0.05 as determined by the student's t test. FIG. 5D) images show HeLa spheroids over 3 days before and after treatment with empty nanoparticles (control; n=3) or 250 nM of nanoparticle-encapsulated C75 (n=3). The scale bar is 100 μm. […] Bars show standard deviation and the asterisks are p<0.05 as determined by the student's t test. FIG. 5F) is a series of images of HCT116 spheroids treated with control (1 μM C87; n=10), 500 nM C75 (n=10) and 1 μM C75 (n=10). FIG. 5G) is a series images of HCT116 spheroids after six days of treatment with control (1 μM C87) or 1 μM C75. The spheroids were stained for fluorescein diacetate (live cells) and propidium iodide (dead cells). […] FIG. 5H) is a line graph showing the growth in surface area (%) of HCT116 spheroids treated with control (1 μM C87), 500 nM C75 and 1 μM C75 after six days. FIG. 5I) is a series of images of A549 spheroids treated with control (1 μM C87, n=6), 500 nM C75 (n=6), and 1 μM C75 (n=6) over 5 days. The scale bar is 100 μm. FIG. 5J) is a series of images of A549 spheroids after six days of treatment with control (750 nM C87) or 1 μM C75. The spheroids were stained for fluorescein diacetate (live cells) and propidium iodide (dead cells). […] Bars show standard deviation and the asterisks are p<0.05 as determined by the student's t test. FIG. 5L) images show A549 spheroids over 6 days before and after treatment with empty nanoparticles (control; n=3) or 500 nM of nanoparticle-encapsulated C75 (n=3). The scale bar is 100 μm. […] Bars show standard deviation and the asterisks are p<0.05 as determined by the student's t test.
FIG. 11A) is a series of images of HCT116 spheroids treated with control (DMSO), 10 nM paclitaxel, 250 nM C75 or both for 6 days. […] The scale bar for the images is 100 μm. […] As shown in the images, adding paclitaxel and C75 in combination led to regression in spheroid size compared to each treatment on its own.
The thienoisoquinoline compounds may also have potential for use in combinatorial therapies. […]

COc1ccc(S(=O)(=O)N2Cc3ccccc3-c3sc(Br)cc32)cc1 [Compound C75]
spheroid growth, single drug (10 nM paclitaxel or 250 nM C75 alone, 6 days): failed to grow
spheroid growth, combination (250 nM C75 + 10 nM paclitaxel, 6 days): regressed in size
effect on spheroids (HCT116 spheroids): regress the growth
